Source: patent US8957022B2, “Multimeric tie 2 agonists and uses thereof in stimulating angiogenesis” (Sunnybrook Health Sciences Centre, priority 2006, dated 2015)
Where no end group is shown, it is not given here. Side-chain parts run from the residue outwards. The star is where a group is joined. Biotin = O=C1N[C@H]2[C@H](CS[C@H]2CCCCC(=O)*)N1; PEO = not defined here

Assays:
MMP2 = experiment: Gelatin zymography of HUVEC conditioned media; format: cell-based, human; conditions: as in Example 4
Experimental: In vivo, ECs can not migrate until they secrete enzymes necessary to break down components of the extra cellular matrix. Gelatin zymography was employed to determine if clustered Vasculotide promoted secretion of MMP2. To perform the zymography, HUVEC were cultured in F12 media plus 0.1% FBS and stimulated for 16 h with VEGF, unclustered Vasculotide or clustered Vasculotide at various concentrations. Conditioned media was centrifuged to remove cellular debris and prepared for gel electrophoresis using non-reducing conditions. Gels were washed twice for 30 minutes in 2.5% Triton X-100 to remove sodium dodecyl sulfate and were then incubated in substrate buffer (50 mmol/L Tris-HCl, pH 8.8, 5 mmol/L CaCl2) for 16 hours at 37° C. Gels were then stained with 0.5% Coomassie blue in 30% methanol/10% acetic acid for 2 hours at room temperature and destained in 50% methanol/10% acetic acid. The presence of metalloproteinases was indicated by unstained proteolytic zones in the gel.

HUVEC [1] = experiment: Modified Boyden chamber migration assay; format: cell-based, human; conditions: as in Example 4
Experimental: To test if Vasculotide, like Ang 1, was capable of promoting these processes, the effect of Vasculotide on EC migration was tested using a modified Boyden chamber assay. HUVEC were seeded at a density of 8.4×10^4 cells in 500 μl of F12 growth media plus 0.1% FBS in the upper chamber of an 8 μm pore size modified Boyden chamber (Falcon). 500 μl of F12 media plus 0.1% FBS plus various growth factors (Ang 1 (R& D Systems), unclustered or clustered Vasculotide, VEGF (R&D Systems) or clustered Vasculotide in combination with VEGF) or controls were placed in the bottom chamber. Cells were allowed to migrate for 4 hours in a 37° C., 5% CO2 incubator. Nonmigrating cells were scraped off, and filters were fixed in 100% methanol for 5 minutes, stained with Harris' Hematoxylin (BDH) for 10 minutes and washed twice with tap water for 3 minutes each. Filters were then mounted using Aquapolymount mounting medium. Cells that had migrated more than 50% of the way through the pore were scored as positive for migration.
Student's t test was used to test the statistical significance with a 95% confidence interval. Stimulations were performed in triplicate and migrating cells in 6 microscopic fields per replicate were counted.

[2] = test system: B6.Cg-m(+/+)Lepr(db)/J (db/db) mice; experiment: Excisional wound healing in diabetic mice, topical application; format: in vivo, mouse; conditions: bFGF 10 μg/ml
Experimental: Pathogen free, nine week old B6.Cg-m(+/+)Lepr(db)/J (db/db) mice were purchased from Jackson Laboratories. Circular, full excisional, 6 mm diameter wounds were made, according to animal committee approval guidelines, equal distant apart on the dorsal side of the mice. Various factors were suspended in sterile Intrasite Topical Gel (Smith and Nephew) at noted concentrations. Treatments were as follows: Vehicle n=8, bFGF (10 μg/ml) n=8, clustered Vasculotide (20 nM) n=4, clustered Vasculotide (5 nM) n=4. Preparations were applied at day 0 (time of wounding), day 2, 4 and 6. Standardized images were taken on days 0, 2, 4, 6 and 7 using a Canon EOS digital Rebel camera. Image J (NIH) was used to manually outline wound perimeter from which total pixel counts (wound area) were determined. Mice were sacrificed on day 7 and full wound beds including margin were excised and fixed in 4% PFA. Wounds were cut in half at the widest point and each half was prepared for either paraffin or frozen sections. Wax sections were processed according to standard protocols for H&E and Masson's Trichrome stain. Images were captured using a Leica DMLS compound light microscope and Pixel Link camera at 5× and 20×. Student's t test was used to test the statistical significance.
For histological scoring, sections were fixed in 4% paraformaldehyde, embedded in paraffin and sectioned and stained with H & E and Masson's trichrome. Sections were evaluated by a pathologist for re-epithelialization, granulation tissue formation, and inflammation, with criteria used for scoring skin as follows:
• 0—none • 1—minimal (0-20% regrowth from wound margins) • 2—mild (25% to 50% regrowth) • 3—moderate (>50% regrowth, up to 100% but not >2 cells thick along length) • 4—complete regrowth (epithelium>1 cell thick along length, keratinized) Granulation Tissue (GT) and Neovascularization: • 0—none • 1—minimal (1-3 small, isolated islands of GT at margins of defect) • 2—mild (multifocal, patchy islands of GT underlying tissue defect, <10 new blood vessels) • 3—moderate (locally extensive bands of GT underlying length of defect) • 4—marked (dense bands of GT at margins and underlying length of defect with collagen fibrils and numerous blood vessels) Inflammation (within Defect): • 0—none • 1—minimal (a few scattered neutrophils at margins of defect) • 2—mild (multifocal aggregates of up to 5 neutrophils underlying defect) • 3—moderate (multifocal aggregates of up to 10 neutrophils and occasional macrophages, minimal to mild edema) • 4—marked (locally extensive, dense neutrophilic infiltrates with lesser numbers of macrophages, mild-moderate edema)

CD1 mice = experiment: Matrigel plug angiogenesis assay; format: in vivo, mouse
Experimental: To further examine the in vivo angiogenic potential of Vasculotide, a Matrigel assay was performed. More specifically, growth factor reduced Matrigel (BD Biosciences) was impregnated with either clustered Vasculotide or one of several different control factors. These Matrigel samples were injected subcutaneously into the flank region of 3 month old CD1 mice. 14 days post implantation and immediately prior to sacrifice, FITC lectin (100 μg) was injected IV and allowed to circulate for 10 minutes, to facilitate vessel identification and quantification. Plugs were surgically resected and fixed in 4% paraformaldehyde (PFA) for 16 h. Images of vascular topology were taken using a Zeiss dissecting microscope at 4× magnification. Upon fixing, all plugs were whole mount stained with anti-Sma1-Cy3. Plugs were analyzed on a Zeiss Axiovert 100 M confocal microscope (Carl Zeiss) for three dimensional image reconstruction and photos were processed using LSM Image Browser and Adobe Photoshop 7.0. Morphometric quantification of vessel characteristics was performed by skeletonizing confocal image projections with Image Processing Tool Kit 5.0 (IPTK 5.0). Student's t test was used to test the statistical significance with a 95% confidence interval. All experiments were performed with three replicates each, with at least 5 random image stacks.
To more fully address and assign quantitative vessel parameters to the different treatment groups, the plugs were fixed and interrogated with laser confocal microscopy analysis combined with post processing image analysis (Image Processing Tool Kit 5.0, Reindeer Graphics, N.C.). Vessel parameters, including length, number and branch points (nodes) were quantified on at least six representative fields. Statistical analysis was performed by way of unpaired Student's t test. Bar graphs of the number of vessels, vessel length and number of nodes, for each treatment group, are shown in FIGS. 3A, 3B and 3C, respectively. It is noted that poor perfusion of FITC-lecithin into mice harboring 20 nM clustered Vasculotide plus VEGF plugs prevented statistical analysis, therefore bars are the mean of two separate fields. All other bars shown represent mean+/−SD.
Ang 1 has been reported to potentiate the recruitment of myogenic support cells (Suri, C. et al. (1996) Cell 87:1171-1180) and inhibit VEGF induced vascular permeability through mechanisms that are not well understood (Thurston, G. et al. (2000) Nat. Med. 6:460-463). To determine if Vasculotide, like Ang 1, was capable of initiating pericyte recruitment, whole mount immunofluorescence was performed against smooth muscle actin 1 (Sma1). […] Sma 1 staining was tightly associated with the exterior of the vessels and was enriched on larger vessels.

Tie 2 = Tie 2 (Homo sapiens, UniProt Q02763); experiment: Tie 2 activation (pY992 Tie 2 immunoblot) in HUVEC; format: cell-based; set-up: downstream signalling pathways in human umbilical vein endothelial cells (HUVEC) (Cambrex, N.J.); host or cells: HUVEC, passage 3-9; conditions: avidin alone and unclustered Vasculotide
Chain of Tie 2 (Q02763 23-1124): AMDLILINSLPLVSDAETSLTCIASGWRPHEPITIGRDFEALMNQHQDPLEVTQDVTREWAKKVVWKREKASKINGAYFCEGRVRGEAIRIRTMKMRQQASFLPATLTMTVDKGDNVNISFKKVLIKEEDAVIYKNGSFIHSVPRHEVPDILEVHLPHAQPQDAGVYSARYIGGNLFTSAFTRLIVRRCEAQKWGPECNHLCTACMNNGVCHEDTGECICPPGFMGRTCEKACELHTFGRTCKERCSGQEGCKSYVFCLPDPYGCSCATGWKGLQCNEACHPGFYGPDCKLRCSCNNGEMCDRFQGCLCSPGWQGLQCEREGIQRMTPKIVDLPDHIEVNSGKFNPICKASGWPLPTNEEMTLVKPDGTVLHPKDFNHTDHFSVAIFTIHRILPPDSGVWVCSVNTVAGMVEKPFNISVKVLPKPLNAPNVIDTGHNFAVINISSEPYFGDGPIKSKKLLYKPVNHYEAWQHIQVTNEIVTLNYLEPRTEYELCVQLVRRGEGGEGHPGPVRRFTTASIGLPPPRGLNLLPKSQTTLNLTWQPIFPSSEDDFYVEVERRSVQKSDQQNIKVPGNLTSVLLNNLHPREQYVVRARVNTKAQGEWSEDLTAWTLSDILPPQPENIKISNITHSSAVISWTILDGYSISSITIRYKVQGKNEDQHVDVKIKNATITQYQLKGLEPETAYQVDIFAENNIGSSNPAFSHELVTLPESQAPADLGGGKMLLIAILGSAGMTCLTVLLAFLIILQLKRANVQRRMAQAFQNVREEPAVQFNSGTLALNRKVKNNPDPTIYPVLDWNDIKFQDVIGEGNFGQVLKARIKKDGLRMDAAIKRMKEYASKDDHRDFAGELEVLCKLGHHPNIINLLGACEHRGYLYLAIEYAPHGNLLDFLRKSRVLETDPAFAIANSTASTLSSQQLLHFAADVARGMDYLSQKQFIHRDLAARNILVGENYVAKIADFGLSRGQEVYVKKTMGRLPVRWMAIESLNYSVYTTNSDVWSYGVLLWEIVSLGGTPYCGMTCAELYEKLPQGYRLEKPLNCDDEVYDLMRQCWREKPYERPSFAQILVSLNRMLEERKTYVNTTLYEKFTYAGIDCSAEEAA
Experimental: Having established that Vasculotide was able to bind Tie 2 (see Example 2), the ability of Vasculotide, when clustered with avidin in a 4:1 ratio (Vasculotide:avidin), to activate the Tie 2 receptor was tested by examining several well established downstream signalling pathways in human umbilical vein endothelial cells (HUVEC) (Cambrex, N.J.). Such signalling pathways are described in, for example, Kim, I. et al. (2000) Circ. Res. 9:952-959; Fujikawa, K. et al. (1999) Exp. Cell. Res. 2:663-672; Babaei, S. et al. (2003) Am. J. Pathol. 6:1927-1936.
HUVEC were grown on 6-well or 10 cm plates (Nunc) coated with gelatin (Sigma). HUVEC were cultured in F12 growth medium containing 10% fetal bovine serum (FBS), 0.1 mg/ml heparin sulphate, 1× penicillin, 1× streptomycin, 1× glutamine, VEGF 10 ng/ml, EGF 10 ng/ml, bFGF 5 ng/ml. All HUVEC were used between passage 3-9.
(§1) HUVEC were stimulated with one of either Ang 1 (R&D Systems), Vasculotide, avidin or clustered Vasculotide (preclustered with a 4:1 molar ratio of peptide:avidin in PBS for 2 hours at 4° C.) at various doses. Stimulations with Vasculotide were performed in full serum containing growth media for 15 minutes unless otherwise indicated. Cell lysate preparations and immunoblot analysis were performed by standard methods. Antibodies used for immunoblotting (in this and/or subsequent Examples) were monoclonal anti Tie 2 (Pharminogen), polyclonal anti pY992 Tie 2, (Cell Signaling Technology), polyclonal anti MAPK (Cell Signaling Technology), monoclonal anti phospho MAPK (Cell Signaling Technology), polyclonal anti AKT (Cell Signaling Technology), polyclonal anti pS473 AKT (Cell Signaling Technology), monoclonal anti pS1177 eNOS (BD Biosciences), polyclonal anti pY397 FAK (Biosource), polyclonal anti FAK (Santa Cruz), polyclonal anti smooth muscle actin-Cy3 direct conjugate (Dako), polyclonal anti PECAM (Pharminogen) and polyclonal anti smooth muscle actin (Sigma).
To examine Tie 2 activation kinetics, HUVEC were stimulated with native Ang 1 or clustered Vasculotide for various times. Stimulation was performed in 10% FBS. […] Overall, activation of the receptor by either Ang 1 or clustered Vasculotide followed a very similar time course with phosphorylation returning to almost basal levels sometime after 2 hours.

HUVEC [3] = experiment: Serum withdrawal-induced cell death, Cell Death ELISA; format: cell-based, human; conditions: F12 plus 0.1% FBS, 16 hours; clustered Vasculotide at 500 pM (p=0.002) vs non-treated cells
Experimental: Based on the fact that clustered Vasculotide strongly activates the anti apoptotic protein AKT (see Example 3), the ability of Vasculotide to protect ECs from serum withdrawal-induced death was examined. To do so, HUVEC were maintained in F12 media plus 0.1% FBS for 16 hours in the presence of various concentrations of unclustered or clustered Vasculotide, followed by analysis of cell apoptosis via cell death ELISA. Analysis of apoptosis was performed using Cell Death ELISA Plus (Roche) according to manufacturers' specifications. The results are shown in FIG. 2A, in which values were normalized to basal levels of cell death for HUVECs maintained in full 10% FBS, growth factor supplemented F12 media. The results shown represent the mean of three replicates plus or minus 1 SD. Student's T-test was used for statistical analysis with P value indicated.

[4] = test system: focal adhesion kinase (FAK); experiment: FAK activation in HUVEC (pY397 FAK immunoblot); format: cell-based, human; conditions: time course
Experimental: as §1
To examine Tie 2 activation kinetics, HUVEC were stimulated with native Ang 1 or clustered Vasculotide for various times. Stimulation was performed in 10% FBS. […]

Molecule: tetrameric GA3-containing compound: GA3 peptide (SEQ ID NO: 4) conjugated to PEO-maleimide-biotin, clustered with avidin in a 4:1 ratio (C([maleimide-PEO-Biotin])WTIIQRREDGSVDFQRTWKEYK; reading uncertain; also: avidin tetramer, 4 peptides per avidin, printed as Cys-Trp-Thr-Ile-Ile-Gln-Arg-Arg-Glu-Asp-Gly-Ser-Val-Asp-Phe-Gln-Arg-Thr-Trp-Lys-Glu-Tyr-Lys)
- MMP2 release (GA3 tetramer) (MMP2): effective in promoting MMP2 release
- Endothelial cell migration (GA3 tetramer) (HUVEC [1]): effective in promoting endothelial cell migration

Molecule: bFGF: growth factor used as comparator at 10 μg/ml in the wound gel [reference compound]
- Wound closure by day 7 [2]: statistically indistinguishable from clustered Vasculotide at 20 nM or 5 nM
- Histological differences between vehicle and bFGF ([2]; p=0.0486): existed only at the level of inflammation

Molecule: VEGF [reference compound]
- Nature of vessels (arborization, tortuosity) (CD1 mice; 14 days post implantation): highly tortuous
- Vessel growth in plugs (confocal analysis) (CD1 mice; 14 days post implantation, FITC lectin): robust induction of angiogenesis
- Angiogenic response in the membranous capsule surrounding the plugs (CD1 mice; 14 days post implantation, subcutaneous): distinct and robust angiogenic response
- Smooth muscle actin 1 (Sma1) staining, pericyte recruitment (CD1 mice; whole mount immunofluorescence): relative absence of Sma1 positive staining cells

Molecule: avidin: tetramer agent with four binding sites for biotin, tested alone as control [reference compound]
- Tie 2 phosphorylation without preclustering (Tie 2): only when preclustered with avidin was Vasculotide able to stimulate Tie 2 phosphorylation
- Apoptosis / survival after serum withdrawal (HUVEC [3]): no effect on survival

B1: Ang 1: angiopoietin 1, protein growth factor ligand for Tie 2 (R&D Systems) (protein, UniProt Q15389 16-498, looked up)
Angiopoietin-1: HIGCSNQRRSPENSGRRYNRIQHGQCAYTFILPEHDGNCRESTTDQYNTNALQRDAPHVEPDFSSQKLQHLEHVMENYTQWLQKLENYIVENMKSEMAQIQQNAVQNHTATMLEIGTSLLSQTAEQTRKLTDVETQVLNQTSRLEIQLLENSLSTYKLEKQLLQQTNEILKIHEKNSLLEHKILEMEGKHKEELDTLKEEKENLQGLVTRQTYIIQELEKQLNRATTNNSVLQKQQLELMDTVHNLVNLCTKEGVLLKGGKREEEKPFRDCADVYQAGFNKSGIYTIYINNMPEPKKVFCNMDVNGGGWTVIQHREDGSLDFQRGWKEYKMGFGNPSGEYWLGNEFIFAITSQRQYMLRIELMDWEGNRAYSQYDRFHIGNEKQNYRLYLKGHTGTAGKQSSLILHGADFSTKDADNDNCMCKCALMLTGGWWFDACGPSNLNGMFYTAGQNHGKLNGIKWHYFKGPSYSLRSTTMMIRPLDF
- Activation of FAK [4]: time dependently activated FAK
